The source of these data is patent publication US20130065757A1, “CHEMICAL COMPOUNDS” (Syngenta Limited, priority 2010, published 2013).

For data set [1], the system named is Maize cv CLAXXON. Kind of data set: Safening on corn, general crop injury. It is filed as in vivo. The note with it: 200 g ai/ha (with safener 200 + 200), sprayed at 3-leaf stage, 100% total damage, 0% no damage. Here is the method: (§1) Maize seeds were sown into standard soil in pots and cultivated under controlled conditions in a glasshouse (at 24/18° C. day/night; 16 hours light; 65% humidity).
(§2) When the plants were at the vegetative stage of 3 leaves they were sprayed with an aqueous spray solution containing the components of the invention alone and where appropriate the herbicide safener (N-(2-methoxybenzoyl)-4-[(methylaminocarbonyl)amino]benzenesulfonamide). All the compounds used for the spray solution were present as an EC or SC formulation respectively. In addition a non-ionic surfactant (X-77 Spreader) was added to form a 0.2% v/v solution.
(§3) The spray solution was applied with a cabinet tracksprayer with a flat fan nozzle (Teejet 11002VS) and an application volume of 200 L/ha (at 2 bar).
(§4) The test plants were then grown on in a glasshouse under controlled conditions (at 24/18° C. day/night; 16 hours light; 65% humidity) and watered twice a day. After 7 and 17 days the test was evaluated for general crop injury (100% equals total damage to plant; 0% equals no damage to plant).

Data set [2] concerns Maize cv GARLAND. Kind of data set: Safening on corn, general crop injury. The class given is in vivo. The note with it: 200 g ai/ha (with safener 200 + 200), sprayed at 3-leaf stage, 100% total damage, 0% no damage. As for the experimental part:
as §1, §2, §3, §4

For data set [3], the system named is Solanum nigrum (SOLNI). Put plainly: Pre-emergence biological efficacy, glasshouse pot test. It is filed as in vivo. The note with it: 312 h, 1,000 g/ha, evaluated after 13 days, 100=total damage, 0=no damage, read-out: Percentage damage caused to weed species, pre-emergence, SOLNI. Here is the method:
(§5) Seeds of Alopecurus myosuroides (ALOMY), Setaria faberi (SETFA), Echinochloa crus-galli (ECHCG), Solanum nigrum (SOLNI), Amaranthus retroflexus (AMARE) and Ipomoea hederaceae (IPOHE) were sown in standard soil in pots. After cultivation for one day under controlled conditions in a glasshouse (at 24/16° C., day/night; 14 hours light; 65% humidity), the plants were sprayed with an aqueous spray solution derived from the formulation of the technical active ingredient in acetone/water (50:50) solution containing 0.5% Tween 20 (polyoxyethylene sorbitan monolaurate, CAS RN 9005-64-5) to give a final dose of 1000 g/ha of test compound.
(§6) The test plants were then grown under controlled conditions in the glasshouse (at 24/16° C., day/night; 14 hours light; 65% humidity) and watered twice daily. After 13 days the test was evaluated (100=total damage to plant; 0=no damage to plant).

Data set [4] relates to Setaria faberi (SETFA). The description is as above. The class given is in vivo. As to conditions: 312 h, 1,000 g/ha, evaluated after 13 days, 100=total damage, 0=no damage, read-out: Percentage damage caused to weed species, pre-emergence, SETFA. As for the experimental part: as §5, §6
The test system of data set [5] is Ipomoea hederaceae (IPOHE). The description is as above. The class given is in vivo. As to conditions: 312 h, 1,000 g/ha, evaluated after 13 days, 100=total damage, 0=no damage, read-out: Percentage damage caused to weed species, pre-emergence, IPOHE. Here is the method: as §5, §6
The test system of data set [6] is Alopecurus myosuroides (ALOMY). The data set is described as above. The class given is in vivo. The note with it: 312 h, 1,000 g/ha, evaluated after 13 days, 100=total damage, 0=no damage, read-out: Percentage damage caused to weed species, pre-emergence, ALOMY. Here is the method: as §5, §6
Data set [7] concerns Amaranthus retroflexus (AMARE). Described as above. It is filed as in vivo. As to conditions: 312 h, 1,000 g/ha, evaluated after 13 days, 100=total damage, 0=no damage, read-out: Percentage damage caused to weed species, pre-emergence, AMARE. As for the experimental part:
as §5, §6

For data set [8], the system named is Echinochloa crus-galli (ECHCG). The data set is described as above. The class given is in vivo. As to conditions: 312 h, 1,000 g/ha, evaluated after 13 days, 100=total damage, 0=no damage, read-out: Percentage damage caused to weed species, pre-emergence, ECHCG. As for the experimental part:
as §5, §6

Data set [9] relates to Solanum nigrum (SOLNI). Put plainly: Post-emergence biological efficacy, glasshouse pot test. It is filed as in vivo. The note with it: 312 h, 1,000 g/ha, post-emergence (sprayed after 8 days), evaluated after 13 days, 100=total damage, 0=no damage, read-out: Percentage damage caused to weed species, post-emergence, SOLNI. Here is the method:
as §5, with “8 days” for “one day”
(§7) The test plants were then grown on under controlled conditions in a glasshouse (at 24/16° C., day/night; 14 hours light; 65% humidity) and watered twice daily. After 13 days the test was evaluated (100=total damage to plant; 0=no damage to plant).

Data set [10] has as its system Setaria faberi (SETFA). Described as above. The class given is in vivo. As to conditions: 312 h, 1,000 g/ha, post-emergence (sprayed after 8 days), evaluated after 13 days, 100=total damage, 0=no damage, read-out: Percentage damage caused to weed species, post-emergence, SETFA. As for the experimental part:
as §5, with “8 days” for “one day”
as §7

The subject of data set [11] is Ipomoea hederaceae (IPOHE). The data set is described as above. The class given is in vivo. The note with it: 312 h, 1,000 g/ha, post-emergence (sprayed after 8 days), evaluated after 13 days, 100=total damage, 0=no damage, read-out: Percentage damage caused to weed species, post-emergence, IPOHE. As for the experimental part:
as §5, with “8 days” for “one day”
as §7

Data set [12] concerns Alopecurus myosuroides (ALOMY). Described as above. The note with it: 312 h, 1,000 g/ha, post-emergence (sprayed after 8 days), evaluated after 13 days, 100=total damage, 0=no damage, read-out: Percentage damage caused to weed species, post-emergence, ALOMY. It is filed as in vivo. Here is the method:
as §5, with “8 days” for “one day”
as §7

The subject of data set [13] is Amaranthus retroflexus (AMARE). The data set is described as above. The class given is in vivo. The note with it: 312 h, 1,000 g/ha, post-emergence (sprayed after 8 days), evaluated after 13 days, 100=total damage, 0=no damage, read-out: Percentage damage caused to weed species, post-emergence, AMARE. Here is the method:
as §5, with “8 days” for “one day”
as §7

In data set [14] the test system is Echinochloa crus-galli (ECHCG). The data set is described as above. The class given is in vivo. The note with it: 312 h, 1,000 g/ha, post-emergence (sprayed after 8 days), evaluated after 13 days, 100=total damage, 0=no damage, read-out: Percentage damage caused to weed species, post-emergence, ECHCG. As for the experimental part:
as §5, with “8 days” for “one day”
as §7

As for `C=Cc1c(N)cc(Cl)nc1C(=O)O` [Compound 1-4, 4-amino-6-chloro-3-ethenyl-pyridine-2-carboxylic acid], the melting point (in general, the temperature of the solid-liquid transition) is 141 to 146 °C (dec.). Besides, in data set [1], the “Percentage damage caused to corn, Maize cv CLAXXON, 7 days after application” value turned out to be 60% and the “Percentage damage caused to corn, Maize cv CLAXXON, 17 days after application” value is 50%. In addition, in [2], the “Percentage damage caused to corn, Maize cv GARLAND, 7 days after application” value was 60% and the “Percentage damage caused to corn, Maize cv GARLAND, 17 days after application” value worked out at 65%. Besides, the pest or weed control at 1000 g/ha in data set [3] was found to be 100%. Also, in data set [4], the pest or weed control at 1000 g/ha was found to be 100%. Further, the pest or weed control at 1000 g/ha in data set [5] came out at 100%. Moreover, in [6], the pest or weed control at 1000 g/ha stood at 90%. Also, the pest or weed control at 1000 g/ha in data set [7] turned out to be 100%. The pest or weed control at 1000 g/ha in [8] stood at 90%. In addition, in data set [9], the pest or weed control at 1000 g/ha stood at 100%. In addition, the pest or weed control at 1000 g/ha in data set [10] stood at 100%. In addition, in data set [11], the pest or weed control at 1000 g/ha was 70%. The pest or weed control at 1000 g/ha in data set [12] was 80%. In addition, the pest or weed control at 1000 g/ha in data set [13] was determined as 100%. In data set [14], the pest or weed control at 1000 g/ha is 80%.
On to `C=Cc1c(C(=O)O)nc(Cl)c(F)c1N` [Compound 1-12, 4-Amino-6-chloro-3-ethenyl-5-fluoro-pyridine-2-carboxylic acid], for which, in data set [1], the “Percentage damage caused to corn, Maize cv CLAXXON, 7 days after application” value is on record as 60%. The “Percentage damage caused to corn, Maize cv CLAXXON, 17 days after application” value in data set [1] came out at 50%. The “Percentage damage caused to corn, Maize cv GARLAND, 7 days after application” value in [2] is reported as 60%. Moreover, the “Percentage damage caused to corn, Maize cv GARLAND, 17 days after application” value in data set [2] is 50%. The pest or weed control at 1000 g/ha was found to be 100% in data set [3]; 100% in [4]; 100% in data set [5]; 90% in [6]; 100% in data set [7]; 90% in data set [8]. Also, the pest or weed control at 1000 g/ha was found to be 90% in data set [9]; 90% in [10]; 100% in data set [11]; 90% in [12]; 100% in [13]; 90% in data set [14].
